Reference: a compilation of properties of binary mixtures (doi:10.1016/j.molliq.2020.114573)

Assay: xn = mol fraction of the nth substance listed
Details: 101.3 kPa

CCCCn1cc[n+](C)c1C.O=S(=O)([N-]S(=O)(=O)C(F)(F)F)C(F)(F)F + CC1COC(=O)O1
viscosity [mPa·s]
Details | x1 = 0.0902 | x1 = 0.193 | x1 = 0.2934 | x1 = 0.4039 | x1 = 0.4996 | x1 = 0.6034 | x1 = 0.6989 | x1 = 0.8107 | x1 = 0.8987 | x1 = 1
288.15 K | 5.24 | 9.07 | 14.94 | 24.89 | 37.46 | 54.7 | – | 104.9 | 137 | 178.8
293.15 K | – | 7.79 | 12.54 | 20.44 | 30.16 | – | 59.4 | 80.2 | 103.2 | 132.9
298.15 K | 4.073 | 6.76 | 10.65 | – | 24.69 | 34.79 | 47.12 | 62.7 | 79.6 | 101.1
303.15 K | 3.637 | – | 9.15 | 14.34 | – | 28.47 | 38.01 | – | 62.6 | –
308.15 K | 3.272 | – | 7.95 | 12.21 | 17.68 | 23.64 | 31.16 | – | 50.2 | 62.2
313.15 K | – | 4.661 | 6.97 | – | 15.21 | 19.88 | 25.91 | 33.28 | 40.89 | –
318.15 K | 2.693 | – | – | 9.16 | – | 17.36 | 21.81 | – | 33.77 | –
323.15 K | 2.463 | 3.77 | 5.49 | 8.04 | 11.16 | 15.04 | 18.72 | 23.39 | 28.28 | 34.04
328.15 K | – | 3.421 | 4.92 | 7.12 | 9.65 | 12.98 | 16.46 | 19.94 | 23.94 | 28.58
333.15 K | 2.088 | 3.121 | 4.439 | 6.34 | 8.42 | 11.22 | 14.32 | – | 20.47 | –
338.15 K | 1.933 | 2.86 | – | 5.69 | – | 9.78 | 12.45 | 15.42 | 17.95 | 20.79
343.15 K | 1.796 | 2.633 | 3.671 | 5.13 | – | – | 10.85 | 13.47 | 15.87 | 18.12
348.15 K | 1.675 | 2.433 | 3.363 | 4.658 | 5.82 | 7.58 | 9.51 | 11.82 | 13.95 | 16.01

CC1COC(=O)O1 (centres undefined) + CCCC[n+]1ccn(C)c1.O=S(=O)([N-]S(=O)(=O)C(F)(F)F)C(F)(F)F
viscosity [mPa·s]
Details | x2 = 0 | x2 = 0.1013 | x2 = 0.1557 | x2 = 0.3071 | x2 = 0.4128 | x2 = 0.5045 | x2 = 0.6 | x2 = 0.7 | x2 = 0.8079 | x2 = 0.8776
288.15 K | 3.063 | 5.14 | 6.77 | 12.5 | 18.43 | 24.64 | 32.48 | 43.74 | 55.8 | 64.4
293.15 K | 2.746 | 4.535 | 5.9 | 10.63 | 15.39 | 20.32 | – | 35.25 | 44.52 | –
298.15 K | 2.476 | – | 5.19 | 9.12 | 13.04 | – | 21.83 | – | 36.14 | 41.16
303.15 K | 2.246 | 3.605 | 4.596 | 7.92 | 11.15 | – | 18.29 | 24.03 | – | –
308.15 K | 2.049 | – | – | 6.95 | – | – | 15.52 | 20.24 | 24.9 | 28.07
313.15 K | 1.879 | 2.945 | 3.69 | 6.14 | 8.42 | – | 13.31 | 17.63 | 21.07 | –
318.15 K | 1.73 | 2.683 | 3.339 | 5.47 | 7.42 | 9.33 | 11.54 | – | 18.27 | 20.13
323.15 K | 1.6 | 2.455 | 3.038 | 4.91 | – | 8.21 | 10.09 | – | 16.06 | 17.66
328.15 K | 1.486 | 2.258 | 2.778 | 4.422 | 5.88 | 7.29 | 8.9 | 11.5 | 13.99 | 15.53
333.15 K | 1.385 | 2.085 | 2.552 | 4.014 | 5.3 | 6.52 | 7.91 | 10.04 | 12.18 | –
338.15 K | 1.294 | 1.931 | 2.354 | – | 4.79 | 5.86 | 7.07 | 8.82 | 10.66 | 11.9
343.15 K | 1.213 | 1.796 | 2.18 | 3.353 | 4.359 | 5.3 | 6.36 | 7.8 | 9.39 | 10.46
348.15 K | – | 1.676 | – | 3.085 | 3.984 | 4.82 | 5.76 | 6.96 | 8.33 | 9.23

CC1COC(=O)O1 (centres undefined) + CC[n+]1ccn(C)c1.O=S(=O)([N-]S(=O)(=O)C(F)(F)F)C(F)(F)F
x2 = 0
Details | viscosity [mPa·s]
288.15 K | 3.063
293.15 K | 2.746
298.15 K | 2.476
308.15 K | 2.049
313.15 K | 1.879
323.15 K | 1.6
328.15 K | 1.486
333.15 K | 1.385
343.15 K | 1.213
348.15 K | 1.14

CC1COC(=O)O1 (centres undefined) + CC[n+]1ccn(C)c1C.O=S(=O)([N-]S(=O)(=O)C(F)(F)F)C(F)(F)F
x2 = 0
Details | viscosity [mPa·s]
293.15 K | 2.746
298.15 K | 2.476
303.15 K | 2.246
313.15 K | 1.879
318.15 K | 1.73
323.15 K | 1.6
328.15 K | 1.486
333.15 K | 1.385
338.15 K | 1.294
343.15 K | 1.213

CC1COC(=O)O1 (centres undefined) + FC(S(=O)(=O)[N-]S(=O)(=O)C(F)(F)F)(F)F.C(CCC)N1C(=[N+](C=C1)C)C
x2 = 0
Details | viscosity [mPa·s]
298.15 K | 2.476
303.15 K | 2.246
308.15 K | 2.049
313.15 K | 1.879
318.15 K | 1.73
323.15 K | 1.6
328.15 K | 1.486
333.15 K | 1.385
338.15 K | 1.294
348.15 K | 1.14
